Experimental data as given in publication PMC3913050 (Bioorganic & medicinal chemistry, 2013).

Assays:
[1] = molecular target: norepinephrine transporter (NET) (Rattus norvegicus, UniProt Q63380); assay: Inhibition of [3H]DA uptake by NET in rat cerebral cortex
[2] = molecular target: serotonin transporter (SERT) (Rattus norvegicus, UniProt P31652); assay: Inhibition of [3H]5-HT uptake by SERT in rat cerebral cortex; format: biochemical
[3] = molecular target: dopamine transporter (DAT) (Rattus norvegicus, UniProt P23977); assay: Inhibition of [3H]DA uptake by DAT in rat striatum; format: biochemical
dopamine transporter (DAT), sequence (P23977 whole entry): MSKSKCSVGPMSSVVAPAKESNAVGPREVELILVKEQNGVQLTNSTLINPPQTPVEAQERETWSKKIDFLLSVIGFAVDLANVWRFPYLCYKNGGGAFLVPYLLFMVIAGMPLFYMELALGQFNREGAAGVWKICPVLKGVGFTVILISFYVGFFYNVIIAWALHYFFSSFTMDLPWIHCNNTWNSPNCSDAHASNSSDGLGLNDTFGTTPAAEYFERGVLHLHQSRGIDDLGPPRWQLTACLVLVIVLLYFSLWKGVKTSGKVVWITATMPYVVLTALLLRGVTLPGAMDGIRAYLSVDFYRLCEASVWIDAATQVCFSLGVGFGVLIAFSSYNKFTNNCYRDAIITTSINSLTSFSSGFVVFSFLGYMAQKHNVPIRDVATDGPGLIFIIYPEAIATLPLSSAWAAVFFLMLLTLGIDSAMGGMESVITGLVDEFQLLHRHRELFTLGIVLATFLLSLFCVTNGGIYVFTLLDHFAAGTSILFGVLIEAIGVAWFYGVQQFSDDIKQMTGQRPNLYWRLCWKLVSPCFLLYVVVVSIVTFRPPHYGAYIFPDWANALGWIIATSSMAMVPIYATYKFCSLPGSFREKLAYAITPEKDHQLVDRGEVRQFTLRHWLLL

norepinephrine transporter (NET), sequence (Q63380 1-617): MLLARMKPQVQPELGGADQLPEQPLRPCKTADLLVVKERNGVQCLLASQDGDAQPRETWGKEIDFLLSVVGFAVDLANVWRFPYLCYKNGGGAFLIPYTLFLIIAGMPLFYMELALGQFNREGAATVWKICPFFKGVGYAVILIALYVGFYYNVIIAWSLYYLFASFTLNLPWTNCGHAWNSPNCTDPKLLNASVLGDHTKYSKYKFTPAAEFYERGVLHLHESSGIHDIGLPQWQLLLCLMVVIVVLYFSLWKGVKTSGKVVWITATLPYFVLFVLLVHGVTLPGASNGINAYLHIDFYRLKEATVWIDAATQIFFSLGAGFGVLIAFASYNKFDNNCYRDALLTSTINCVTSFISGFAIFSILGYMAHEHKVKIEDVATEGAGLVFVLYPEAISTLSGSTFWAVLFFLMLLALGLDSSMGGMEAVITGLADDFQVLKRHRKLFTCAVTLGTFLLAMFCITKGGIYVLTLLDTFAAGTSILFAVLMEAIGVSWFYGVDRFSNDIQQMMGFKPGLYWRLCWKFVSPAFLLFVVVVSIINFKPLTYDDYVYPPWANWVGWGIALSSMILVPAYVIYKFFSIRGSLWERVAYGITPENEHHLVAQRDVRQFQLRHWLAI
serotonin transporter (SERT), sequence (P31652 whole entry): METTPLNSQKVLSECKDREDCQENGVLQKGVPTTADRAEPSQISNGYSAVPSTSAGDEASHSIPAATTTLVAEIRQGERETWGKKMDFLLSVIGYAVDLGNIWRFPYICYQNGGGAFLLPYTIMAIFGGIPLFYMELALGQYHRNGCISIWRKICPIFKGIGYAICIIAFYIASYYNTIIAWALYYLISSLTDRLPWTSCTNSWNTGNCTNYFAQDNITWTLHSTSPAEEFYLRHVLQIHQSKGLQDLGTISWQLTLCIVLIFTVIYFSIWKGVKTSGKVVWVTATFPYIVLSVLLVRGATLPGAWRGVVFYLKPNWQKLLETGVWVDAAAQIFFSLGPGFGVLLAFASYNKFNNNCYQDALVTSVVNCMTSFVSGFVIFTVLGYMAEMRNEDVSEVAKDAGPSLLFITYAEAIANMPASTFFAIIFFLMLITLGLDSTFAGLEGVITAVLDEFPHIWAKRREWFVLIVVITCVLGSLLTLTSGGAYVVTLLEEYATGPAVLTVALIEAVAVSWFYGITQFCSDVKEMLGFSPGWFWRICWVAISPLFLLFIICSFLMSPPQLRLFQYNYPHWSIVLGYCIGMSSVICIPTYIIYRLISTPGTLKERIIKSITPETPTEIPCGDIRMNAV

| Compound | Ki ([1]; read-out: Ki uptake inhibition, NET, text value in µM) [µM] | Ki ([2]; read-out: Ki uptake inhibition, SERT, text value in µM) [µM] | Ki ([3]; read-out: Ki uptake inhibition, DAT, text value in µM) [µM] | activity against NET (in words) ([1]; uptake inhibition) | activity against SERT (in words) ([2]; uptake inhibition) | activity against DAT (in words) ([3]; uptake inhibition) |
| --- | --- | --- | --- | --- | --- | --- |
| 3-((((3S,5S)-5-benzhydryltetrahydrofuran-3-yl)amino)methyl)phenol [compound 40] | 1.51 | 1.15 | 0.94 |  |  |  |
| c1ccc(CCN[C@@H]2CO[C@H](C(c3ccccc3)c3ccccc3)C2)cc1 [compound 44, (3S,5S)-5-benzhydryl-N-phenethyltetrahydrofuran-3-amine] |  |  |  | weak activity | inactive | weak activity |
